Data on 7 molecules can be found in patent US20240409536A1, “COMPOUNDS AND METHODS FOR MODULATING SPLICING” (REMIX THERAPEUTICS INC., priority 2021, published 2024).

Where only a bound is given, the exact number is not on record here.

The IC50 is the midpoint of a concentration-inhibition curve.

For data set [1], the system named is HiBiT-tagged MYB protein. Nature of the data set: HiBiT protein abundance assay, MYB (K562 HiBiT knock-in cells). Type of data set: cell-based, human. The conditions noted are these: 24 hours. Put shortly:
(§1)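 K562 cells with endogenous HiBiT knock-in tag, 10-point 3-fold dilutions (top 10 μM final, ≤0.25% DMSO), 24 h at 37 °C. Lytic Nano-Glo HiBiT luminescence, normalized to DMSO and unmodified K562 baselines; IC50 is concentration giving 50% protein abundance from four-parameter fit.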
(With HiBiT, luminescence reflects the tagged protein that the partner subunit can reach.)

Data set [2] deals with HiBiT-tagged HTT protein. The data set is described as follows: HiBiT protein abundance assay, HTT (K562 HiBiT knock-in cells). The note with it: 24 hours. In kind it is cell-based, human. Put shortly: as §1
In data set [3] the test system is HTT mRNA. The data set is described as follows: Gene panel canonical junction qPCR assay, HTT CJ mRNA decrease. The conditions noted are these: Homo sapiens, canonical junction qPCR, read-out: HTT IC50 (decrease in CJ mRNA levels). Type of data set: cell-based, human. The method, boiled down:
(§2)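 IC50 values describe loss of canonical-junction transcript, fitted by 4-parameter logistic to percent response derived from fixed ΔCt windows. Read-out: RT-qPCR on lysates of compound-treated K562 or A673 cells, probes overlapping the exon junction, ΔΔCt versus housekeeping gene and DMSO control.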

Data set [4] has as its system SMN2 mRNA. The data set is described as follows: Gene panel canonical junction qPCR assay, SMN2 CJ mRNA decrease. The conditions noted are these: Homo sapiens, canonical junction qPCR, read-out: SMN2 IC50 (decrease in CJ mRNA levels). Type of data set: cell-based, human. Put shortly: as §2
The subject of data set [5] is Target C mRNA. Nature of the data set: Gene panel canonical junction qPCR assay, Target C CJ mRNA decrease. Type of data set: cell-based. The note with it: Homo sapiens, canonical junction qPCR, read-out: Target C IC50 (decrease in CJ mRNA levels). The method, boiled down: as §2
In general terms: Real-time PCR tracks product formation cycle by cycle.

Data set [6] concerns MYB mRNA. The data set is described as follows: Gene panel canonical junction qPCR assay, MYB CJ mRNA decrease. In kind it is cell-based, human. The conditions noted are these: Homo sapiens, canonical junction qPCR, read-out: MYB IC50 (decrease in CJ mRNA levels). Put shortly:
as §2

In data set [7] the test system is K562 cells. Nature of the data set: Cell Titer Glo 2.0 cell viability assay in K562 cells. The conditions noted are these: 72 hours. For orientation: Cellular ATP, detected with luciferase, serves as a proxy for viable cell number.

With `Cc1cn2cc(NC(=O)c3ccc(N4CCNC5(CCC5)C4)c4nccnc34)cc(F)c2n1` [Compound 363], the IC50 in data set [1] was below 100 nM; in data set [2], 1000 to 10000 nM; in data set [3], 1000 to 10000 nM; in data set [4], below 100 nM; in data set [5], 1000 to 10000 nM; in data set [6], 100 to 1000 nM. The Viability entry in data set [7] was “A (A represents <100 nM)”.

For the molecule `Cc1cn2cc(NC(=O)c3ccc(N4CCN(C)C5(CC5)C4)c4nccnc34)cc(F)c2n1` [Compound 364], the IC50 in data set [1] was 100 to 1000 nM; in data set [2], 100 to 1000 nM; in data set [3] it was 100 to 1000 nM; in data set [4], below 100 nM; in data set [5], 1000 to 10000 nM; in data set [6], 100 to 1000 nM. In data set [7], the Viability entry is “B (B represents 100-1000 nM)”.

Regarding `CCN1CCN(c2ccc(C(=O)Nc3cc(F)c4nc(C)cn4c3)c3nccnc23)CC12CC2` [Compound 365], the IC50 is 100 to 1000 nM in data set [1]; 100 to 1000 nM in data set [2]; 100 to 1000 nM in data set [3]; below 100 nM in data set [4]; 1000 to 10000 nM in data set [5]; 100 to 1000 nM in data set [6]. Besides, the Viability entry in data set [7] is listed as “B (B represents 100-1000 nM)”.

Take `Cc1cn2cc(NC(=O)c3ccc(N4CCN[C@H](CF)C4)c4nccnc34)cc(F)c2n1` [Compound 366]: the IC50 in data set [1] was 100 to 1000 nM; in data set [2] it was 1000 to 10000 nM; in data set [3] it was 1000 to 10000 nM; in data set [4], below 100 nM; in data set [5], 1000 to 10000 nM; in data set [6] it was 100 to 1000 nM. Also, the Viability entry in data set [7] was “C (C represents 1000-9999 nM)”.

Consider `Cc1cn2cc(NC(=O)c3ccc(N4CCN[C@@H](CF)C4)c4nccnc34)cc(F)c2n1` [Compound 367], for which the IC50 in data set [1] lay in the range of 1000 to 10000 nM; in data set [2] it was 1000 to 10000 nM; in data set [3] it was 1000 to 10000 nM; in data set [4], 100 to 1000 nM; in data set [5] it was 1000 to 10000 nM; in data set [6], 1000 to 10000 nM. Besides, in data set [7], the Viability entry is reported as “C (C represents 1000-9999 nM)”.

On to `Cc1cn2cc(NC(=O)c3ccc(N4CCNC(C)(CO)C4)c4nccnc34)cc(F)c2n1` (stereo not shown) [Compound 368], for which the IC50 in data set [1] was below 100 nM; in data set [2] it was 1000 to 10000 nM; in data set [3], 1000 to 10000 nM; in data set [4], below 100 nM; in data set [5], 1000 to 10000 nM; in data set [6] it was below 100 nM. Besides, the Viability entry in data set [7] is “B (B represents 100-1000 nM)”.

As to `Cc1cn2cc(NC(=O)c3ccc(N4CCN(CCO)C5(CC5)C4)c4nccnc34)cc(F)c2n1` [Compound 369], the IC50 in data set [1] is 100 to 1000 nM; in data set [2], 1000 to 10000 nM; in data set [3], 1000 to 10000 nM; in data set [4], below 100 nM; in data set [5], 1000 to 10000 nM; in data set [6], 100 to 1000 nM. Moreover, the Viability entry in data set [7] is reported as “C (C represents 1000-9999 nM)”.
